Among the data in article PMC2248166, “Quantitative peptide binding motifs for 19 human and mouse MHC class I molecules derived using positional scanning combinatorial peptide libraries” (Immunome Research, 2008) are IC50 values, retold here.

SMILES strings stand for the structures. pIC50: −log10 of the molar value. Where a SMILES comes first, the peptide text is derived from it.

The experiment concerns the target HLA A*3201 (Homo sapiens, UniProt P04439, A270S/D101S/D185E/E176V/E277Q/F133L/G103R/G107R/G231S/H175R/I121M/I218V/I322F/K168Q/L105A/L300P/L318F/M331R/P208A/P217A/Q94H/R106L/R138Q/S129P/T104I/T323A/T345S/V100E/V321M/V358M). Description: biochemical. It counts as binding.

`CC[C@H](C)[C@H](NC(=O)CNC(=O)[C@@H](NC(=O)[C@H](C)NC(=O)[C@@H](NC(=O)[C@H](CCCNC(=N)N)NC(=O)[C@H](CCSC)NC(=O)[C@H](CC(C)C)NC(=O)[C@@H](N)CCSC)C(C)C)C(C)C)C(=O)O` [3102.0437] (H-MLMRVAVGI-OH) gave a pIC50 of 9.16. Under `CC[C@H](C)[C@H](NC(=O)[C@H](CC(C)C)NC(=O)[C@H](Cc1ccccc1)NC(=O)[C@@H](NC(=O)[C@@H](N)CCCNC(=N)N)[C@@H](C)O)C(=O)N[C@@H](CC(=O)O)C(=O)N[C@@H](CC(C)C)C(=O)N[C@@H](C)C(=O)N[C@@H](Cc1ccccc1)C(=O)O` [3102.0420] (H-RTFLIDLAF-OH) stands 9.32. Then `CSCC[C@H](NC(=O)[C@H](Cc1ccc(O)cc1)NC(=O)[C@H](Cc1ccccc1)NC(=O)[C@H](CC(C)C)NC(=O)[C@@H](N)CCSC)C(=O)N[C@@H](CC(=O)O)C(=O)N[C@@H](CC(C)C)C(=O)N[C@@H](CO)C(=O)N[C@@H](Cc1ccc(O)cc1)C(=O)O` [3102.0347] (H-MLFYMDLSY-OH), with 8.92; and `CC[C@H](C)[C@H](NC(=O)[C@H](CC(C)C)NC(=O)[C@H](Cc1c[nH]cn1)NC(=O)[C@@H](N)CCCNC(=N)N)C(=O)N[C@@H](Cc1ccccc1)C(=O)N[C@@H](CO)C(=O)N[C@@H](Cc1ccc(O)cc1)C(=O)N[C@@H](C)C(=O)N[C@@H](Cc1ccccc1)C(=O)O` [3102.0393] (H-RHLIFSYAF-OH), with 7.85. Consider `CC[C@H](C)[C@H](NC(=O)[C@H](Cc1ccccc1)NC(=O)[C@H](CCCCN)NC(=O)[C@@H](NC(=O)[C@H](Cc1ccc(O)cc1)NC(=O)[C@H](CCC(N)=O)NC(=O)[C@@H](NC(=O)[C@@H](N)CC(C)C)C(C)C)[C@@H](C)CC)C(=O)N[C@@H](Cc1ccccc1)C(=O)O` [3102.0413] (H-LVQYIKFIF-OH), for which the negative-log IC50 (pIC50) is 7.70. Under `CC[C@H](C)[C@H](NC(=O)[C@H](CO)NC(=O)[C@@H](NC(=O)[C@@H](NC(=O)[C@H](Cc1ccc(O)cc1)NC(=O)[C@H](CC(N)=O)NC(=O)[C@H](CO)NC(=O)[C@H](CC(C)C)NC(=O)[C@@H](N)Cc1c[nH]cn1)[C@@H](C)CC)C(C)C)C(=O)O` [3102.0449] (H-HLSNYIVSI-OH) stands 9.00; under `CC[C@H](C)[C@H](NC(=O)[C@H](CO)NC(=O)[C@H](CO)NC(=O)[C@@H](NC(=O)[C@H](CO)NC(=O)[C@H](Cc1ccccc1)NC(=O)[C@@H](NC(=O)[C@@H](N)CO)[C@@H](C)O)[C@@H](C)CC)C(=O)N[C@@H](Cc1ccccc1)C(=O)O` [3102.0305] (H-STFSISSIF-OH), 8.96. Under `CC[C@H](C)[C@H](NC(=O)[C@H](CO)NC(=O)[C@H](CS)NC(=O)[C@H](CCSC)NC(=O)[C@@H](N)C(C)C)C(=O)N[C@@H](CO)C(=O)N[C@@H](CC(C)C)C(=O)N[C@H](C(=O)N[C@@H](Cc1ccc(O)cc1)C(=O)O)[C@@H](C)O` [3102.0394] (H-VMCSISLTY-OH) stands 7.96. Then `CC[C@H](C)[C@H](NC(=O)[C@@H](NC(=O)[C@H](Cc1ccccc1)NC(=O)[C@H](CC(C)C)NC(=O)[C@H](Cc1ccccc1)NC(=O)[C@@H](NC(=O)[C@@H](NC(=O)[C@H](CC(C)C)NC(=O)[C@@H](N)CCCCN)[C@@H](C)CC)[C@@H](C)O)C(C)C)C(=O)O` [3102.0370] (H-KLITFLFVI-OH), with 9.39; and `CC[C@H](C)[C@H](N)C(=O)N[C@@H](CC(C)C)C(=O)N1CCC[C@H]1C(=O)N[C@H](C(=O)N[C@H](C(=O)N[C@@H](Cc1ccccc1)C(=O)N[C@@H](CC(C)C)C(=O)N[C@@H](CO)C(=O)N[C@H](C(=O)O)[C@@H](C)CC)[C@@H](C)CC)C(C)C` [3102.0375] (H-ILPVIFLSI-OH), with 8.35. As to `CC[C@H](C)[C@H](N)C(=O)N[C@H](C(=O)N[C@@H](Cc1c[nH]c2ccccc12)C(=O)N[C@@H](CCCCN)C(=O)NCC(=O)N[C@H](C(=O)N[C@@H](Cc1ccc(O)cc1)C(=O)N[C@H](C(=O)N[C@@H](Cc1ccc(O)cc1)C(=O)O)[C@@H](C)O)[C@@H](C)CC)[C@@H](C)CC` [3102.0441] (H-IIWKGIYTY-OH), the negative logarithm of the IC50 (pIC50) was 8.48. Under `CC(C)C[C@H](N)C(=O)N[C@H](C(=O)NCC(=O)N[C@H](C(=O)N[C@@H](Cc1ccccc1)C(=O)N[C@H](C(=O)N[C@H](C(=O)N[C@@H](C)C(=O)N[C@@H](Cc1ccccc1)C(=O)O)[C@@H](C)O)C(C)C)[C@@H](C)O)[C@@H](C)O` [3102.0515] (H-LTGTFVTAF-OH) stands 8.06. Then `CC[C@H](C)[C@H](NC(=O)[C@H](Cc1ccccc1)NC(=O)[C@@H](NC(=O)[C@@H](NC(=O)[C@@H](N)CO)[C@@H](C)CC)[C@@H](C)CC)C(=O)N[C@@H](CC(N)=O)C(=O)N[C@@H](Cc1ccc(O)cc1)C(=O)N[C@H](C(=O)N[C@@H](CCSC)C(=O)O)[C@@H](C)O` [3102.0303] (H-SIIFINYTM-OH), with 8.19; and `CC[C@H](C)[C@H](NC(=O)[C@@H](NC(=O)[C@H](CC(C)C)NC(=O)[C@H](CC(C)C)NC(=O)[C@H](CC(N)=O)NC(=O)[C@H](Cc1ccc(O)cc1)NC(=O)[C@H](CCSC)NC(=O)[C@H](CC(C)C)NC(=O)[C@@H](N)CC(C)C)[C@@H](C)O)C(=O)O` [3102.0454] (H-LLMYNLLTI-OH), with 7.14. Then `CC(C)[C@H](NC(=O)CNC(=O)[C@H](Cc1ccc(O)cc1)NC(=O)[C@@H](NC(=O)[C@@H](N)CCCNC(=N)N)[C@@H](C)O)C(=O)N[C@@H](CC(N)=O)C(=O)N[C@@H](Cc1ccc(O)cc1)C(=O)N[C@H](C(=O)N[C@@H](Cc1ccccc1)C(=O)O)[C@@H](C)O` [3102.0318] (H-RTYGVNYTF-OH), with 9.59.

Take `CSCC[C@H](NC(=O)[C@H](C)NC(=O)[C@@H](N)CC(C)C)C(=O)N[C@@H](CC(N)=O)C(=O)N[C@@H](CO)C(=O)N[C@H](C(=O)N[C@@H](Cc1ccccc1)C(=O)N[C@H](C(=O)N[C@@H](Cc1ccccc1)C(=O)O)[C@@H](C)O)C(C)C` [3102.0426] (H-LAMNSVFTF-OH): the pIC50 was 7.80. `CC[C@H](C)[C@H](NC(=O)[C@H](CC(=O)O)NC(=O)[C@H](CC(C)C)NC(=O)[C@@H](NC(=O)[C@@H](N)CC(C)C)[C@@H](C)O)C(=O)N[C@@H](Cc1ccccc1)C(=O)N[C@@H](Cc1ccc(O)cc1)C(=O)N[C@@H](CC(C)C)C(=O)N[C@@H](Cc1ccccc1)C(=O)O` [3102.0354] (H-LTLDIFYLF-OH) showed a pIC50 of 8.36. As for `CC[C@H](C)[C@H](NC(=O)[C@H](Cc1ccc(O)cc1)NC(=O)[C@@H](NC(=O)[C@@H](NC(=O)[C@@H](NC(=O)[C@H](CCSC)NC(=O)[C@@H](NC(=O)[C@@H](N)CCCCN)[C@@H](C)O)[C@@H](C)O)[C@@H](C)O)C(C)C)C(=O)N[C@@H](CC(C)C)C(=O)O` [3102.0466] (H-KTMTTVYIL-OH), the pIC50 is 7.85. The compound `CC[C@H](C)[C@H](NC(=O)[C@H](CC(N)=O)NC(=O)[C@H](CC(C)C)NC(=O)[C@@H](NC(=O)[C@@H](N)C(C)C)[C@@H](C)O)C(=O)N[C@@H](CO)C(=O)N[C@@H](CO)C(=O)N[C@@H](CCCCN)C(=O)N[C@@H](Cc1ccccc1)C(=O)O` [3102.0324] (H-VTLNISSKF-OH) gave a pIC50 of 7.96. Then `CC[C@H](C)[C@H](N)C(=O)N[C@H](C(=O)N[C@H](C(=O)N[C@@H](Cc1ccccc1)C(=O)N[C@@H](Cc1ccccc1)C(=O)N[C@H](C(=O)N[C@H](C(=O)N[C@@H](CC(C)C)C(=O)N[C@H](C(=O)O)[C@@H](C)CC)C(C)C)[C@@H](C)CC)[C@@H](C)CC)[C@@H](C)CC` [3102.0435] (H-IIIFFIVLI-OH), with 7.85.
